Assays:
EGFR tyrosine kinase = molecular target: T1, EGFR tyrosine kinase (Homo sapiens, UniProt P00533); assay: Protein tyrosine kinase phosphorylation assay, Test (a), EGFR; type: biochemical; conditions: recombinant intracellular fragment, ATP at Km; read-out: IC50 Test (a): Inhibition of EGFR tyrosine kinase protein phosphorylation
T1 construct: Recombinant intracellular fragments of EGFR, erbB2 and erbB4; made in house; host or cells: baculovirus/Sf21 insect cells (cleared lysate used)
Protocol: (§1) This test measures the ability of a test compound to inhibit the phosphorylation of a tyrosine containing polypeptide substrate by EGFR, erbB2 and erbB4 tyrosine kinase enzyme.
(§2) Recombinant intracellular fragments of EGFR, erbB2 and erbB4 (accession numbers X00588, X03363 and L07868 respectively) were cloned and expressed in the baculovirus/Sf21 system. Lysates were prepared from these cells by treatment with ice-cold lysis buffer (20 mM N-2-hydroxyethylpiperizine-N′-2-ethanesulfonic acid (HEPES) pH7.5, 150 mM NaCl, 10% glycerol, 1% Triton X-100, 1.5 mM MgCl2, 1 mM ethylene glycol-bis(β-aminoethyl ether) N′,N′,N′,N′-tetraacetic acid (EGTA), plus protease inhibitors and then cleared by centrifugation.
(§3) Constitutive kinase activity of these recombinant proteins was determined by their ability to phosphorylate a synthetic peptide (made up of a random co-polymer of Glutamic Acid, Alanine and Tyrosine in the ratio of 6:3:1). […]
(§4) The immobilised phospho-peptide product of the reaction was detected by immunological methods. […]
(§5) Kinase inhibition for a given compound was expressed as an IC50 value. […] The range of phosphorylation was calculated from the positive (vehicle plus ATP) and negative (vehicle minus ATP) control values.

erbB2 tyrosine kinase = molecular target: T2, erbB2 tyrosine kinase (Homo sapiens, UniProt P04626); assay: Protein tyrosine kinase phosphorylation assay, Test (a), erbB2; type: biochemical; conditions: recombinant intracellular fragment, ATP at Km; read-out: IC50 Test (a): Inhibition of erbB2 tyrosine kinase protein phosphorylation
T2 construct: Recombinant intracellular fragments of EGFR, erbB2 and erbB4; made in house; host or cells: baculovirus/Sf21 insect cells (cleared lysate used)
Protocol: as §1, §2, §3, §4, §5

[1] = test system: phosphorylation of erbB2 in a MCF7 derived cell line (Clone 24 cells); assay: Clone 24 phospho-erbB2 cell assay, Test (c); type: cell-based; conditions: Homo sapiens; MCF7 derived Clone 24 cells, 4 hours; read-out: IC50 Test (c): Inhibition of erbB2 tyrosine kinase protein phosphorylation
Protocol: This immunofluorescence end point assay measures the ability of a test compound to inhibit the phosphorylation of erbB2 in a MCF7 (breast carcinoma) derived cell line which was generated by transfecting MCF7 cells with the full length erbB2 gene using standard methods to give a cell line that overexpresses full length wild type erbB2 protein (hereinafter ‘Clone 24’ cells).
Clone 24 cells were cultured in Growth Medium (phenol red free Dulbecco's modified Eagle's medium (DMEM) containing 10% foetal bovine serum, 2 mM glutamine and 1.2 mg/ml G418) in a 7.5% CO2 air incubator at 37° C. […] Cell density was measured using a haemocytometer and viability was calculated using Trypan Blue solution before being further diluted in Growth Medium and seeded at a density of 1×10^4 cells per well (in 100 ul) into clear bottomed 96 well plates (Packard, No. 6005182). […]
Immunostaining was performed at room temperature. […] Plates were analysed within six hours of completing the immunostaining.
The Fluorescence signal is each well was measured using an Acumen Explorer Instrument (Acumen Bioscience Ltd.), a plate reader that can be used to rapidly quantitate features of images generated by laser-scanning. […]

T1 sequence (P00533 669-1210 limits assumed): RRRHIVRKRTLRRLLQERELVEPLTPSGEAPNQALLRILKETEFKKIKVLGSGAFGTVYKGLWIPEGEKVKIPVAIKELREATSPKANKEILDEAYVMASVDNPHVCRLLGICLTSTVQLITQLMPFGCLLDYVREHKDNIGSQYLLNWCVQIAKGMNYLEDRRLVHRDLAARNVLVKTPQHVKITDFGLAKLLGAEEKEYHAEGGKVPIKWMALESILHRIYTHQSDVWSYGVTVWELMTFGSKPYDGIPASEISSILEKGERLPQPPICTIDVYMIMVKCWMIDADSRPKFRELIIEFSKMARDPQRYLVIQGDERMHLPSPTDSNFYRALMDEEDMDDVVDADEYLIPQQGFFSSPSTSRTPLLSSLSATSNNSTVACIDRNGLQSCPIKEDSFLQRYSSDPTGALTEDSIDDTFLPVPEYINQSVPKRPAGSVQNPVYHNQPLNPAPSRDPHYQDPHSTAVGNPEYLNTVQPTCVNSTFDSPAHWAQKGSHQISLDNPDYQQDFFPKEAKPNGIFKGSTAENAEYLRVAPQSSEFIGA
T2 sequence (P04626 676-1255 limits assumed): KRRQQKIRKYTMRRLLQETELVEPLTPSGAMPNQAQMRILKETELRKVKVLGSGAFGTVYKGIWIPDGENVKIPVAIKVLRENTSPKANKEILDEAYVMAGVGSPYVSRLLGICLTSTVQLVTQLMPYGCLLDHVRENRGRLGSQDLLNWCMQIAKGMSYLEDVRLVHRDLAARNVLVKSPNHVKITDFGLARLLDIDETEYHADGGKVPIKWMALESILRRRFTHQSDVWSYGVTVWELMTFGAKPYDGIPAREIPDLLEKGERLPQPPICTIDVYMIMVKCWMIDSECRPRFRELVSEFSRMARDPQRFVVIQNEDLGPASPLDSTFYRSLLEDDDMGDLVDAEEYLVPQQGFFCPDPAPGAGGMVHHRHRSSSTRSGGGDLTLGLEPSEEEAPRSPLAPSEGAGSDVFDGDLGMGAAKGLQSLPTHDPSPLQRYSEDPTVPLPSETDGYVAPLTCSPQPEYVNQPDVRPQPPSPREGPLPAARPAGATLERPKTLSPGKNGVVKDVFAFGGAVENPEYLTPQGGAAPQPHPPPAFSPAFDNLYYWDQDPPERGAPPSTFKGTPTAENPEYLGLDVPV

IC50 (EGFR tyrosine kinase) [nM] | IC50 (erbB2 tyrosine kinase) [nM] | IC50 [1] [nM] | SMILES
210 | 12 |  | C[C@@H](Oc1cccc2ncnc(Nc3ccc4c(cnn4Cc4ccccn4)c3)c12)C(=O)N(C)CCO [Example 1, (2R)—N-(2-Hydroxyethyl)-N-methyl-2-[(4-{[1-(pyridin-2-ylmethyl)-1H-indazol-5-yl]amino}quinazolin-5-yl)oxy]propanamide]
 |  | 35 | C[C@@H](Oc1cccc2ncnc(Nc3ccc4c(cnn4Cc4ccccn4)c3)c12)C(=O)N1CCOCC1 [Example 2, 5-[(1R)-1-Methyl-2-morpholin-4-yl-2-oxoethoxy]-N-[1-(pyridin-2-ylmethyl)-1H-indazol-5-yl]quinazolin-4-amine]

From patent US7820683B2, “4-(1H-indazol-5-yl-amino)-quinazoline compounds as erbB receptor tyrosine kinase inhibitors for the treatment of cancer” (AstraZeneca AB, priority 2005, dated 2010)
